# Patent publication US11634395B2, “Sulfonamide compound or salt thereof” (Taiho Pharmaceutical Co., Ltd., priority 2016, dated 2023)
# Biological target: Human RNR (human M1 subunit and human M2 subunit) (Homo sapiens (Human), UniProt P23921)
# Test: Human RNR inhibition effect (formation of dCDP from CDP, HPLC)
# Type: biochemical
# Settings: human M1 and M2 proteins, 10 μM CDP, 37° C. for 30 minutes; read-out: RNR Enzyme inhibitory activity IC50
# Protocol: The inhibitory activity against the ribonucleotide reduction reaction (hereinafter referred to as RNR reaction) of the test compound was determined by measuring the formation of deoxycytidine diphosphate (hereinafter referred to as dCDP) from cytidine diphosphate (hereinafter referred to as CDP) by the following method.
# Human M1 subunit and human M2 subunit (mutant lacking amino terminal 59 amino acids), which are fused a histidine tag at the amino terminus, are overexpressed in Escherichia coli and are solubilized after collection, and histidine tagged human M1 and M2 proteins were purified on a nickel chelate column.
# First, test compounds were serially diluted with DMSO. Next, human M1 protein and human M2 protein were added to an aqueous albumin solution derived from 0.02% fetal bovine serum, a DMSO solution of the compound of the present invention or the control DMSO solution (final concentration of DMSO was 1%) was added, and the mixture was allowed to stand for 20 minutes. Thereafter, the reaction buffer [50 mM HEPES buffer (pH 7.2) at the final concentration, 4 mM magnesium acetate at the final concentration, 100 mM potassium chloride at the final concentration, 6 mM dithiothreitol at the final concentration, 2 mM adenosine triphosphate at the final concentration, 0.24 mM nicotinamide adenine dinucleotide phosphate at final concentration] and 10 μM CDP at the final concentration were added and incubated at 37° C. for 30 minutes to perform RNR reaction. Immediately after the reaction, the reaction was stopped by heating at 100° C. for 15 minutes, followed by centrifugation at 10,000 rpm for 10 minutes. After the centrifugation, a portion (5 μL) of the resulting supernatant was analyzed with a high performance liquid chromatography (Shimadzu Corporation, Prominence) using Shim-pack XR-ODS (manufactured by Shimadzu GLC Co., 3.0×100 mm).
# Sequence of Human RNR (human M1 subunit and human M2 subunit) (P23921 whole entry): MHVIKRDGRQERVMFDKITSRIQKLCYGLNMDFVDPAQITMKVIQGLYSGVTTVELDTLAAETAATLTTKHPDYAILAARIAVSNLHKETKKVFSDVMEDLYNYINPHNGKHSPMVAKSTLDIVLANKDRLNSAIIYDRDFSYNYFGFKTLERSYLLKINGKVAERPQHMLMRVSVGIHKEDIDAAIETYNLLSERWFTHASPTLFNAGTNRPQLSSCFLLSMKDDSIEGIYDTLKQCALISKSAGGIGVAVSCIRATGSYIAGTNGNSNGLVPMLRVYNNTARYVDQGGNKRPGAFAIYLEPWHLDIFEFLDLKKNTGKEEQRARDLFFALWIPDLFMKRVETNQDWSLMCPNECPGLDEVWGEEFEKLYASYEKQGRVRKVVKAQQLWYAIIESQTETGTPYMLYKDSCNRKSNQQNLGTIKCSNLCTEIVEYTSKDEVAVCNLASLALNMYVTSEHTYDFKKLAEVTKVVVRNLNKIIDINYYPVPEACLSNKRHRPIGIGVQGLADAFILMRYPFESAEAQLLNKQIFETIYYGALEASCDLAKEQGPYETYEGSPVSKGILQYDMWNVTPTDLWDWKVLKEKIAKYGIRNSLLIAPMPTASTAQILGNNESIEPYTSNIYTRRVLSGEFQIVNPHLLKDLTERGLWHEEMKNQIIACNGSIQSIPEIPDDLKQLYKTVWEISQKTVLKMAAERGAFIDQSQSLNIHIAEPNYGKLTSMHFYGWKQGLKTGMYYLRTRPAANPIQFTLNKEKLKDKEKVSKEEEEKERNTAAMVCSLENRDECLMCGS
row,IC50 [nM],Compound
1,30,"[2H]C([2H])([2H])C1(O)CCOc2c(S(=O)(=O)N[C@H](c3n[nH]c(=O)o3)[C@H](C)c3c(F)ccc(C)c3C)ccc(Cl)c21 (single isomer, unassigned) [Example 200A]"
2,100,"Cc1c(Cl)ccc(F)c1[C@@H](C)[C@H](NS(=O)(=O)c1ccc(Cl)c2c1OCCC2(C)O)c1n[nH]c(=O)o1 (single isomer, unassigned) [Example 209A]"
3,60,"Cc1ccc(F)c([C@@H](C)[C@H](NS(=O)(=O)c2ccc(Cl)c3c2OCCC3(O)C(F)(F)F)c2n[nH]c(=O)o2)c1C (single isomer, unassigned) [Example 220A]"
4,80,"Cc1ccc(F)c([C@@H](C)[C@H](NS(=O)(=O)c2ccc(Cl)c3c2OCCC3(O)C(F)(F)F)c2n[nH]c(=O)o2)c1C (single isomer, unassigned) [Example 220B]"
5,60,"Cc1c(Br)ccc(F)c1[C@@H](C)[C@H](NS(=O)(=O)c1ccc(Cl)c2c1OCCC2(C)O)c1n[nH]c(=O)o1 (single isomer, unassigned) [Example 222B]"
6,100,"Cc1ccc(F)c([C@@H](C)[C@H](NS(=O)(=O)c2ccc(F)c3c2OCCC3(C)O)c2n[nH]c(=O)o2)c1C (single isomer, unassigned) [Example 224B]"
7,50,"[2H]C([2H])([2H])C1(O)CCOc2c(S(=O)(=O)N[C@H](c3n[nH]c(=O)o3)[C@H](C)c3c(F)ccc(Br)c3C)ccc(Cl)c21 (single isomer, unassigned) [Example 226A]"
8,50,"Cc1c(Br)ccc(F)c1[C@@H](C)[C@H](NS(=O)(=O)c1ccc(F)c2c1OCCC2(C)O)c1n[nH]c(=O)o1 (single isomer, unassigned) [Example 227A]"
9,80,"[2H]C([2H])([2H])C1(O)CCOc2c(S(=O)(=O)N[C@H](c3n[nH]c(=O)o3)[C@H](C)c3c(F)ccc(Cl)c3C)ccc(Cl)c21 (single isomer, unassigned) [Example 228A]"
10,60,"Cc1c(Cl)ccc(F)c1[C@@H](C)[C@H](NS(=O)(=O)c1ccc(F)c2c1OCCC2(C)O)c1n[nH]c(=O)o1 (single isomer, unassigned) [Example 229A]"
11,110,"Cc1c(Cl)ccc(F)c1[C@@H](C)[C@H](NS(=O)(=O)c1ccc(F)c2c1OCCC2(C)O)c1n[nH]c(=O)o1 (single isomer, unassigned) [Example 229B]"
12,120,"Cc1ccc(F)c([C@@H](C)[C@H](NS(=O)(=O)c2ccc(F)c3c2OCCC3O)c2n[nH]c(=O)o2)c1C (single isomer, unassigned) [Example 230A]"
13,310,"C[C@H](c1c(F)ccc2ccccc12)[C@H](NS(=O)(=O)c1ccc(Cl)c2c1OCCC2O)c1n[nH]c(=O)o1 (single isomer, unassigned) [Example 234A]"
14,70,"Cc1ccc(F)c([C@@H](C)[C@H](NS(=O)(=O)c2ccc(Cl)c3c2OCCC3O)c2n[nH]c(=O)o2)c1C (single isomer, unassigned) [Example 235B]"
15,290,"Cc1ccc(F)c([C@@H](C)[C@H](NS(=O)(=O)c2cccc3c2OC(C)(C)CC3O)c2n[nH]c(=O)o2)c1C (single isomer, unassigned) [Example 237A]"
16,200,"CCc1ccc(F)c([C@@H](C)[C@H](NS(=O)(=O)c2ccc(Cl)c3c2OCCC3O)c2n[nH]c(=O)o2)c1C (single isomer, unassigned) [Example 239A]"
17,100,"Cc1c(Br)ccc(F)c1[C@@H](C)[C@H](NS(=O)(=O)c1ccc(Cl)c2c1OCCC2O)c1n[nH]c(=O)o1 (single isomer, unassigned) [Example 243B]"
18,110,"Cc1c(Cl)ccc(F)c1[C@@H](C)[C@H](NS(=O)(=O)c1ccc(Cl)c2c1OCCC2O)c1n[nH]c(=O)o1 (stereo partly drawn) [Example 238A, 5-chloro-N-((1S,2R)-2-(3-chloro-6-fluoro-2-methylphenyl)-1-(5-oxo-4,5-dihydro-1,3,4-oxadiazol-2-yl)propyl)-4-hydroxychroman-8-sulfonamide]"

# The remaining lines, values behind:
row,Compound,IC50 [nM]
1,"[2H]C([2H])([2H])C1(O)CCOc2c(S(=O)(=O)N[C@H](c3n[nH]c(=O)o3)[C@H](C)c3c(F)ccc(C)c3C)ccc(Cl)c21 (single isomer, unassigned) [Example 200B]",80
2,"Cc1ccc(F)c([C@@H](C)[C@H](NS(=O)(=O)c2ccc(Cl)c3c2OCCC3(C)O)c2n[nH]c(=O)o2)c1C (single isomer, unassigned) [Example 207A]",130
3,"Cc1ccc(F)c([C@@H](C)[C@H](NS(=O)(=O)c2ccc(Cl)c3c2OCCC3(C)O)c2n[nH]c(=O)o2)c1C (single isomer, unassigned) [Example 207B]",90
4,"COc1c(S(=O)(=O)N[C@H](c2n[nH]c(=O)o2)[C@H](C)c2c(F)ccc(C)c2C)ccc(Cl)c1C(C)O (single isomer, unassigned) [Example 208A]",100
5,"COc1c(S(=O)(=O)N[C@H](c2n[nH]c(=O)o2)[C@H](C)c2c(F)ccc(C)c2C)ccc(Cl)c1C(C)O (single isomer, unassigned) [Example 208B]",60
6,"Cc1c(Cl)ccc(F)c1[C@@H](C)[C@H](NS(=O)(=O)c1ccc(Cl)c2c1OCCC2(C)O)c1n[nH]c(=O)o1 (single isomer, unassigned) [Example 209B]",180
7,"Cc1c(Br)ccc(F)c1[C@@H](C)[C@H](NS(=O)(=O)c1ccc(Cl)c2c1OCCC2(C)O)c1n[nH]c(=O)o1 (single isomer, unassigned) [Example 222A]",80
8,"[2H]C([2H])([2H])C1(O)CCOc2c(S(=O)(=O)N[C@H](c3n[nH]c(=O)o3)[C@H](C)c3c(F)ccc(Br)c3C)ccc(Cl)c21 (single isomer, unassigned) [Example 226B]",70
9,"Cc1c(Br)ccc(F)c1[C@@H](C)[C@H](NS(=O)(=O)c1ccc(F)c2c1OCCC2(C)O)c1n[nH]c(=O)o1 (single isomer, unassigned) [Example 227B]",90
10,"[2H]C([2H])([2H])C1(O)CCOc2c(S(=O)(=O)N[C@H](c3n[nH]c(=O)o3)[C@H](C)c3c(F)ccc(Cl)c3C)ccc(Cl)c21 (single isomer, unassigned) [Example 228B]",140
11,"Cc1ccc(F)c([C@@H](C)[C@H](NS(=O)(=O)c2ccc(F)c3c2OCCC3O)c2n[nH]c(=O)o2)c1C (single isomer, unassigned) [Example 230B]",50
12,"Cc1ccc(F)c([C@@H](C)[C@H](NS(=O)(=O)c2ccc(Cl)c3c2OCCC3O)c2n[nH]c(=O)o2)c1C (single isomer, unassigned) [Example 235A]",80
13,"Cc1c(Br)ccc(F)c1[C@@H](C)[C@H](NS(=O)(=O)c1ccc(Cl)c2c1OCCC2O)c1n[nH]c(=O)o1 (single isomer, unassigned) [Example 243A]",70
14,"Cc1ccc(F)c([C@@H](C)[C@H](NS(=O)(=O)c2ccc(C(F)(F)F)c3c2OCCC3O)c2n[nH]c(=O)o2)c1C (single isomer, unassigned) [Example 244A]",90
15,"Cc1ccc(F)c([C@@H](C)[C@H](NS(=O)(=O)c2ccc(C(F)(F)F)c3c2OCCC3O)c2n[nH]c(=O)o2)c1C (single isomer, unassigned) [Example 244B]",220
16,"Cc1c(Cl)ccc(F)c1[C@@H](C)[C@H](NS(=O)(=O)c1ccc(Cl)c2c1OCCC2(C)N)c1n[nH]c(=O)o1 (single isomer, unassigned) [Example 330A]",120
17,"Cc1c(Cl)ccc(F)c1[C@@H](C)[C@H](NS(=O)(=O)c1ccc(Cl)c2c1OCCC2(C)N)c1n[nH]c(=O)o1 (single isomer, unassigned) [Example 330B]",460

# Same assay, conditions: human M1 and M2 subunits; formation of dCDP from CDP, 10 μM CDP, 37° C. for 30 minutes; read-out: RNR Enzyme inhibitory activity IC50
row,IC50 [nM],Compound
1,600,"C=C(c1c(F)ccc(C)c1C)[C@H](NS(=O)(=O)c1ccc(Cl)cc1OC)c1n[nH]c(=O)o1 [Example 185, (S)-4-chloro-N-(2-(6-fluoro-2,3-dimethylphenyl)-1-(5-oxo-4,5-dihydro-1,3,4-oxadiazol-2-yl)allyl)-2-methoxybenzenesulfonamide]"
